Experiments:
cultured DRG neurons = settings: morphologically similar to that induced by axotomy (Wang et al. 2000; FIG. 2); cited from earlier work
DRG axons = test: DRG axotomy model: axon degeneration 24 hours post-axotomy (phase contrast, degeneration index); format: cell-based, mouse
From the text: In these experiments, the inventors cultured embryonic mouse dorsal root ganglion cells (DRGs) for 14-16 days to allow their axons to radiate from the central core of cell bodies before severing the axons with a micro-scalpel. […] Axotomized DLK mutant axons have a 65%+/−3.2% (se) decrease in degeneration index (DI) relative to controls (p<0.0001, n=8 individual axotomized DRG cultures per condition, t-test). Vincristine treatment induces 59%+/−6.3% (se) less DI in DLK mutants relative to controls (p<0.002, n=7 DRG cultures per condition, t-test). […] The initially smooth and continuous axonal processes become rough and irregular axon fragments. The extent of axon breakdown was quantified by measuring the fraction of axonal area occupied by fragmented axons (degeneration index, DI). […] Because non-neuronal cells are eliminated in this DRG culture system, we concluded that DLK must be required within neurons themselves for the normal axon degenerative response.
In these experiments, to determine whether the axon degeneration pathway requires either JNK or p38, we used pharmacological inhibitors of each MAP kinase in the DRG axotomy model. Wild-type DRG cultures were treated with the JNK inhibitor SP600215 and the p38 inhibitor SB203580 starting from 24 hours before axotomy and for the remainder of the experiment.
Unless noted, vehicle and inhibitors were added 24 hours pre-axotomy and left on for the duration of the experiment. FIG. 3A: Vehicle (DMSO). FIG. 3B: SB203580 (P38 inhibitor). FIG. 3C: SP600215 (JNK inhibitor). FIG. 3D: SP600215 added 24 hr pre-axotomy, and removed just before axotomy. FIG. 3E: SF600215 added concurrently with axotomy. FIG. 3F: SP600215 added 3 hours post-axotomy. FIG. 3G: SP600215 added concurrent with axotomy and removed 3 hours post-axotomy.

Row | SMILES | axon degeneration triggered by the drug (cultured DRG neurons) | degeneration of DRG axons following axotomy (DRG axons; added 3 hours post-axotomy and continued for the rest of the experiment (FIG. 3F)) | degeneration of DRG axons following axotomy (DRG axons; added 24 hr pre-axotomy, and removed just before axotomy (FIG. 3D)) | degeneration of DRG axons following axotomy (DRG axons; added concurrent with axotomy and removed 3 hours post-axotomy (FIG. 3G), vs vehicle (DMSO)) | degeneration of DRG axons following axotomy (DRG axons; added concurrently with axotomy (FIG. 3E)) | degeneration of DRG axons following axotomy (DRG axons; inhibitor added 24 hours pre-axotomy and left on for the duration of the experiment, 24 hours post-axotomy, vs vehicle (DMSO) (FIG. 3B, 3C))
1 | CC[C@]1(O)C[C@H]2CN(CCc3c([nH]c4ccccc34)[C@@](C(=O)OC)(c3cc4c(cc3OC)N(C=O)[C@H]3[C@@](O)(C(=O)OC)[C@H](OC(C)=O)[C@]5(CC)C=CCN6CC[C@]43[C@@H]65)C2)C1 [vincristine] | triggers an axon degeneration |  |  |  |  | 
2 | O=C1c2ccccc2-c2n[nH]c3cccc1c23 [SP600215, Anthra[1,9-cd]pyrazol-6(2H)-one; 1,9-pyrazoloanthrone] |  | did not decrease axon degeneration | not protective | significantly less degenerated than A | protective | significantly less degenerated than A

Source: patent publication US8754060B2, “Methods and compositions for inhibition of axonal degeneration by modulation of the DLK/JNK pathway” (Washington University, priority 2008, dated 2014)
